Laboratory results as given in US8642799B2, “Cysteine protease inhibitors for the treatment of parasitic diseases” (Merck Canada Inc., priority 2007, dated 2014).

target: cruzipain (Trypanosoma cruzi, UniProt P25779); experiment: biochemical; settings: 50 pM cruzipain, pH 5.5, 15 minutes preincubation, 2 μM Z-Phe-Arg-AMC substrate
Procedure: The assay solutions were mixed and incubated for 15 minutes at room temperature prior to the addition of 2 μM of Z-Phe-Arg-AMC substrate. […] Percent of inhibition were calculated by fitting experimental values to standard mathematical model for dose response curve.

Sequence of cruzipain (P25779 123-467): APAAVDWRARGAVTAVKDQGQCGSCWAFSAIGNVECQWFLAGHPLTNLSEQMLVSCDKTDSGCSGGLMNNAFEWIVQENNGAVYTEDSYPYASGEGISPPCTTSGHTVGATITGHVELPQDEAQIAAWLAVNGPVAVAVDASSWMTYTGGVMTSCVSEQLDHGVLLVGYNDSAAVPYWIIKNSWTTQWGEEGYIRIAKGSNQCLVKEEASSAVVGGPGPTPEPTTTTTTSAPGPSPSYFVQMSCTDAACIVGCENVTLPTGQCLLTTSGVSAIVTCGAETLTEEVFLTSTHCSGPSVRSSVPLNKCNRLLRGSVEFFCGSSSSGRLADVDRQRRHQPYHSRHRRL

IC50 [nM]	SMILES
0.14	CS(=O)(=O)c1ccc(-c2ccc([C@H](N[C@@H](CC(Cl)Cl)C(=O)N[C@H](C#N)Cc3ccc(C#N)cc3F)C(F)(F)F)cc2)cc1 [Example 1, (S)-4,4-Dichloro-N-[(S)-cyano-(4-cyano-2-fluoro-benzyl)-methyl]-2-[(S)-2,2,2-trifluoro-1-(4′-methanesulfonyl-biphenyl-4-yl)-ethylamino]-butyramide]
3.5	CC(C)(F)C[C@H](N[C@@H](c1ccc(-c2ccc(S(C)(=O)=O)cc2)cc1)C(F)(F)F)C(=O)NC(C#N)Cc1ccc(C(F)(F)F)cc1F (stereo partly drawn) [Example 33, (S)-4-Fluoro-4-methyl-2-[(S)-2,2,2-trifluoro-1-(4′-methanesulfonyl-biphenyl-4-yl)-ethylamino]-pentanoic acid [cyano-(2-fluoro-4-trifluoromethyl-benzyl)-methyl]-amide]
0.9	CC(C)(F)C[C@H](N[C@@H](c1ccc(-c2ccc(S(C)(=O)=O)cc2)cc1)C(F)(F)F)C(=O)N[C@H](C#N)Cc1ccccc1F [Example 17, (S)-Fluoro-4-methyl-2-[(S)-2,2,2-trifluoro-1-(4′-methanesulfonyl-biphenyl-4-yl)-ethylamino]-pentanoic acid [(S)-1-cyano-2-(2-fluoro-phenyl)-ethyl]-amide]
15	CC(C)(F)C[C@H](N[C@@H](c1ccc(-c2ccc(S(C)(=O)=O)cc2)cc1)C(F)(F)F)C(=O)N[C@H](C#N)Cc1cccc[n+]1[O-] [Example 65, (S)-4-Fluoro-4-methyl-2-[(S)-2,2,2-trifluoro-1-(4′-methanesulfonyl-biphenyl-4-yl)-ethylamino]-pentanoic acid [(S)-cyano-(1-oxy-pyridin-2-ylmethyl)-methyl]-amide]
7.1	CC(C)(F)C[C@H](N[C@@H](c1ccc(-c2ccc(S(C)(=O)=O)cc2)cc1)C(F)(F)F)C(=O)N[C@H](C#N)Cc1c(F)cccc1F [Example 76, (S)-4-Fluoro-4-methyl-2-[(S)-2,2,2-trifluoro-1-(4′-methanesulfonyl-biphenyl-4-yl)-ethylamino]-pentanoic acid [(S)-cyano-(2,6-difluoro-benzyl)-methyl]-amide]
0.1	CC(C)[C@H](N[C@@H](c1ccc(-c2ccc(N3CCNCC3)cc2)cc1)C(F)(F)F)C(=O)N[C@H](C#N)Cc1ccccc1 [Example 47, 4-[4′-((S)-1-{(S)-1-[((S)-Benzyl-cyano-methyl)-carbamoyl]-2-methyl-propylamino}-2,2,2-trifluoro-ethyl)-biphenyl-4-yl]-piperazin-1-ium; chloride]
4.2	CSc1ccc(-c2ccc([C@H](N[C@@H](CC(C)(C)F)C(=O)N[C@H](C#N)Cc3ccc(C#N)cc3F)C(F)(F)F)cc2)cc1 [Example 26, (S)-4-Fluoro-4-methyl-2-[(S)-2,2,2-trifluoro-1-(4′-methylsulfanyl-biphenyl-4-yl)-ethylamino]-pentanoic acid [(S)-1-cyano-2-(4-cyano-2-fluoro-phenyl)-ethyl]-amide]
0.5	CC(C)[C@H](N[C@@H](c1ccc(-c2ccc(S(C)(=O)=O)cc2)cc1)C(F)(F)F)C(=O)N[C@H](C#N)Cc1c(F)cc(C#N)cc1F [Example 72, (S)-N-[(S)-Cyano-(4-cyano-2,6-difluoro-benzyl)-methyl]-3-methyl-2-[(S)-2,2,2-trifluoro-1-(4,- methanesulfonyl-biphenyl-4-yl)-ethylamino]-butyramide]
9.3	CC(C)(F)C[C@H](N[C@@H](c1ccc(-c2ccc([C@@H](O)C(F)F)cc2)cc1)C(F)(F)F)C(=O)NC(C#N)Cc1ccc(C(F)(F)F)cc1F (stereo partly drawn) [Example 37, (S)-2-{(S)-1-[4′-((R)-2,2-Difluoro-1-hydroxy-ethyl)-biphenyl-4-yl]-2,2,2-trifluoro-ethylamino}-4-fluoro-4-methyl-pentanoic acid [cyano-(2-fluoro-4-trifluoromethyl-benzyl)-methyl]-amide]
1.3	CC(C)(F)C[C@H](N[C@@H](c1ccc(-c2ccc(S(C)(=O)=O)cc2)cc1)C(F)(F)F)C(=O)N[C@H](C#N)Cc1ccc(Cl)cc1Cl [Example 18, (S)-4-Fluoro-4-methyl-2-[(S)-2,2,2-trifluoro-1-(4′-methanesulfonyl-biphenyl-4-yl)-ethylamino]-pentanoic acid [(S)-1-cyano-2-(2,4-dichloro-phenyl)-ethyl]-amide]
4.4	CS(=O)(=O)c1ccc(-c2ccc([C@H](N[C@H](C(=O)N[C@H](C#N)Cc3ccc(C#N)cc3F)C3CC3)C(F)(F)F)cc2)cc1 [Example 68, (S)-N-[(S)-Cyano-(4-cyano-2-fluoro-benzyl)-methyl]-2-cyclopropyl-2-[(S)-2,2,2-trifluoro-1-(4′-methanesulfonyl-biphenyl-4-yl)-ethylamino]-acetamide]
0.6	CC(C)C[C@H](N[C@@H](c1ccc(Br)cc1)C(F)(F)F)C(=O)N[C@H](C#N)Cc1ccc(S(C)(=O)=O)cc1 [Example 9, (S)-2-[(S)-1-(4-Bromo-phenyl)-2,2,2-trifluoro-ethylamino]-4-methyl-pentanoic acid [(S)-1-cyano-2-(4-methanesulfonyl-phenyl)-ethyl]-amide]
0.3	CC(C)(F)C[C@H](N[C@@H](c1ccc(-c2ccc(C3(C(N)=O)CC3)cc2)cc1)C(F)(F)F)C(=O)N[C@H](C#N)Cc1ccc(C#N)cc1F [Example 38, 1-[4′-((S)-1-{(S)-1-[(S)-1-Cyano-2-(4-cyano-2-fluoro-phenyl)-ethylcarbamoyl]-3-fluoro-3-methyl-butylamino}-2,2,2-trifluoro-ethyl)-biphenyl-4-yl]-cyclopropanecarboxylic acid amide]
0.75	C[S+]([O-])c1ccc(-c2ccc([C@H](N[C@@H](CC(C)(C)F)C(=O)N[C@H](C#N)Cc3ccc(C#N)cc3F)C(F)(F)F)cc2)cc1 (stereo partly drawn) [Example 25, (S)-4-Fluoro-4-methyl-2-[(S)-2,2,2-trifluoro-1-(4′-methanesulfinyl-biphenyl-4-yl)-ethylamino]-pentanoic acid [(S)-1-cyano-2-(4-cyano-2-fluoro-phenyl)-ethyl]-amide]
16	CC(C)(F)C[C@H](N[C@@H](c1ccc(-c2ccc(-c3ccc(S(C)(=O)=O)cc3)cc2)cc1)C(F)(F)F)C(=O)N[C@H](C#N)Cc1ccccc1 [Example 24, (S)-4-Fluoro-4-methyl-2-[(S)-2,2,2-trifluoro-1-(4-methanesulfonyl-[1,1′;4′,1″]terphenyl-4″-yl)-ethylamino]-pentanoic acid ((S)-benzyl-cyano-methyl)-amide]
4.3	C=CCNC(=O)C1(c2ccc(-c3ccc([C@H](N[C@@H](CC(C)(C)F)C(=O)N[C@H](C#N)Cc4ccccc4)C(F)(F)F)cc3)cc2)CC1 [Example 57, 1-[4′-((S)-1-{(S)-1-[((S)-Benzyl-cyano-methyl)-carbamoyl]-3-fluoro-3-methyl-butylamino}-2,2,2-trifluoro-ethyl)-biphenyl-4-yl]-cyclopropanecarboxylic acid allylamide]
3.1	COC(=O)CNC(=O)C1(c2ccc(-c3ccc([C@H](N[C@@H](CC(C)(C)F)C(=O)N[C@H](C#N)Cc4ccccc4)C(F)(F)F)cc3)cc2)CC1 [Example 53, ({1-[4′-((S)-1-{(S)-1-[((S)-Benzyl-cyano-methyl)-carbamoyl]-3-fluoro-3-methyl-butylamino}-2,2,2-trifluoro-ethyl)-biphenyl-4-yl]-cyclopropanecarbonyl}-amino)-acetic acid methyl ester]
